≈ marks a conversion by molar mass, not a printed value. Where two headings read alike, the source gives them in different places. Positions of bridges follow the written chain, without caps; N, C: chain ends. Non-standard residues stand in square brackets, D forms with d. Residues, ends and D or L forms follow the SMILES beside them. Lys(N3) = [N-]=[N+]=NCCCC[C@H](N)C(=O)O; R8 = C=CCCCCCC[C@@](C)(N)C(=O)O; Cba = N[C@@H](CC1CCC1)C(=O)O; S5 = C=CCCC[C@](C)(N)C(=O)O; βAla = NCCC(=O)O
Key:
[1] = Solubility assay (kinetic solubility, PBS pH 7); assay type: physicochemical
Summary of the method: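 Quantitation uses an external standard at 100 µM, prepared from 10 mM stock in acetonitrile:methanol:DMSO (10:80:10). Solubility (µM) = (peak area of sample ÷ peak area of standard) × standard concentration.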

[2] = Experimental LogD (partition coefficient)
[3] = Nanoclick permeability assay
Summary of the method: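 Azido-peptide permeability was read as loss of NanoBRET signal (donor 450 nm, acceptor 610 nm) after adding NanoBret618-azide at 10 μM final.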

[4] = system: panel of cancer cell lines, p53 WT or p53 deficient (null, mutant, HPV infected); assay type: cell-based; conditions: p53 WT vs p53 null/mutant/HPV
From the text: Amongst the cell lines used, the following lines are amongst those listed as frequently misidentified by the International Cell Line Authentication Committee: HeLa, A549, HepG2, MCF-7,LoVo, SW48,.AsPC-1,HL-60, and MIA PaCa-2. These latter lines were used in order to employ a variety of lines represented diverse cancer types and that represented different p53 status (wild-type, mutant, null, and HPV infected). Imporantly, assay ready cells were used for these experiments and PCR analysis of target short tandem repeat (STR) markers was used to authenticate cell lines prior to cell banking. Cell viabilities were determined using the CellTiter-Glo® assay kit (Promega G7558). […] Assay plates were incubated at 37 °C, 5% CO2 overnight to allow cell attachment. Following day, compounds were dispensed into the assay plate using the Tecan HPD300 system and incubated at 37 °C, 5% CO2 for 120 h. At 120 h post dose, CellTiter-Glo assay was performed according to the manufacturer’s protocol. […] Staurosporine (Selleckchem S1421) was used as a positive control for the assay.

[5] = Lactate dehydrogenase (LDH) release assay; assay type: cell-based
Summary of the method: (§1)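 HCT116 cells stably carrying a p53-responsive β-lactamase reporter were seeded at 8000 cells per well with a final DMSO level of 0.5%. Membrane integrity was assessed by lactate dehydrogenase release using a homogeneous fluorometric kit. Values are geometric means of at least three biological replicates.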

HCT116 cells = assay: Lactate dehydrogenase (LDH) release assay; assay type: cell-based
Summary of the method: as §1

in vitro = conditions: human, HCT116 whole cell homogenates
[6] = Fig S4
EPSA = assay type: physicochemical; conditions: EPSA
Ca Ski cell line = conditions: 72 h
Summary of the method: (§2)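 Compound dilution series (10 points, 3-fold, 10 mM top stock in DMSO) tested on overnight-plated Ca Ski cells in RPMI1640/10% FBS and on blasticidin-selected p53RE-bla HCT-116 cells in McCoy's 5A; read-out was CellTiter-Glo 2.0 luminescence after room-temperature equilibration.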

[7] = system: CellSensor p53RE-bla HCT-116 Cell Line; conditions: 72 h
Summary of the method: as §2

Question: Which Solubility [1] does the source give for `CC(=O)N[C@@H](CCCCN=[N+]=[N-])C(=O)NCCC(=O)N[C@H]1CCCCNC(=O)CC[C@@H]2NC(=O)[C@@](C)(CCCCCCC=CCCC[C@@](C)(C(=O)N[C@@H](CO)C(=O)N[C@@H](C)C(=O)N[C@@H](C)C(N)=O)NC(=O)[C@H](CC3CCC3)NC(=O)[C@H](CCC(N)=O)NC(=O)[C@H](C)NC(=O)[C@H](Cc3c[nH]c4ccccc34)NC(=O)[C@H](Cc3ccc(O)cc3)NC2=O)NC(=O)[C@H](Cc2ccccc2)NC(=O)[C@H]([C@@H](C)O)NC1=O` [MP-002] here?
Answer: poor behavior

Question: What about the Solubility ([1]; pH 7, PBS) of the same compound?
Answer: Poorly Behaved

Question: And the “Partition Coeff LogD” value [2]?
Answer: Poorly Behaved

Question: What about the cell entry EC50 [3] of the same compound?
Answer: 0.462 µM

Question: What about the EPSA (physchem) of the same compound?
Answer: 182 A^2

Question: And the “off-target proliferation effects in p53 deficient control lines” value [4]?
Answer: remarkably devoid of off-target toxicity

Question: What about the EC50 ([5]; 0% FBS 4Hr, read-out: LDH: Cytotoxicity assay: EC50) of the same compound?
Answer: > 50.7 µM

Question: And the EC50 ([5]; 0% FBS 16Hr, read-out: LDH: Cytotoxicity assay: EC50)?
Answer: > 50.7 µM

Question: What about the EC50 ([5]; 10% FBS 4Hr, read-out: LDH: Cytotoxicity assay: EC50) of the same compound?
Answer: > 50.7 µM

Question: What about the EC50 ([5]; 10% FBS 16Hr, read-out: LDH: Cytotoxicity assay: EC50) of the same compound?
Answer: > 50.7 µM

Question: And the “LDH: Cytotoxicity assay: % Effect” value (HCT116 cells; 0% FBS 4Hr)?
Answer: -7.169%

Question: And the “LDH: Cytotoxicity assay: % Effect” value (HCT116 cells; 0% FBS 16Hr)?
Answer: 0.3781%

Question: What about the “LDH: Cytotoxicity assay: % Effect” value (HCT116 cells; 10% FBS 4Hr) of the same compound?
Answer: -6.533%

Question: And the “LDH: Cytotoxicity assay: % Effect” value (HCT116 cells; 10% FBS 16Hr)?
Answer: -11.6%

Question: With `CC(=O)N[C@@H](CCCCN=[N+]=[N-])C(=O)NCCC(=O)N[C@@H](CC(C)C)C(=O)N[C@H](C(=O)N[C@@H](Cc1ccccc1)C(=O)N[C@]1(C)CCCCCCC=CCCC[C@@](C)(C(=O)N[C@@H](C)C(=O)N[C@@H](C)C(=O)N[C@@H](C)C(=O)N[C@@H](C)C(=O)N[C@@H](C)C(=O)N[C@H](C)C(N)=O)NC(=O)[C@H](CC2CCC2)NC(=O)[C@H](CCC(N)=O)NC(=O)[C@H](C)NC(=O)[C@H](Cc2c[nH]c3ccccc23)NC(=O)[C@H](Cc2ccc(O)cc2)NC(=O)[C@H](CCC(=O)O)NC1=O)[C@@H](C)O` [MP-464] (Ac-[Lys(N3)][βAla]LTF[R8]EYWAQ[Cba][S5]AAAAA[dA]-NH2; staple 6-13) as the compound, how does the half-life at 1 μM (in vitro) read?
Answer: 1.53 h

Question: And the solubility kinetic ([1]; pH 7, aqueous buffer, kinetic from dmso stock, pH 7, PBS, read-out: Solubility)?
Answer: 157 µM (≈ 340 µg/mL)

Question: And the cell entry EC50 ([3]; Nanoclick permeability assay EC50)?
Answer: 4.19 µM

Question: And the “stability in serum plasma” value [6]?
Answer: highly stable

Question: What about the EC50 ([5]; LDH: Cytotoxicity assay: EC50) of the same compound?
Answer: > 50.7 µM

Question: What about the EPSA (EPSA) of the same compound?
Answer: 194 A^2

Question: And the EC50 (Ca Ski cell line)?
Answer: > 49.8 µM

Question: What about the EC50 [7] of the same compound?
Answer: 0.42 µM
